What all share (assay): NCI tumour cell line growth inhibition, 48 h
Assay [1] relates to OVCAR-5 ovarian.
Assay [2] deals with SF-268 CNS.
For assay [3], the system named is NCI/ADR-RES ovarian.
Assay [4] deals with RPMI-8226 leukemia.
The subject of assay [5] is UACC-62 melanoma.
The subject of assay [6] is KM12 colon.
For assay [7], the system named is TK-10 renal.
Assay [8] deals with M14 melanoma.

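Growth conditions: 96-well plates. Treatment: test compound, 48 hours, 5 concentrations. Analysis: linear interpolation between bracketing concentrations; unreached endpoints set to highest concentration. GI50 = concentration required for 50% inhibition of growth. TGI: concentration producing complete growth inhibition.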

`Nc1nn(C(=O)Nc2ccc(Cc3ccccc3)cc2)c2ccc(Cl)cc12`: the GI50 in assay [1] is 22.7 µM; in assay [2], 13.2 µM; in assay [3] it was 7.89 µM; in assay [4], 5.21 µM; in assay [5], 0.0397 µM; in assay [6] it was 0.0755 µM. Further, the figures for the GI50 in assay [7] and in assay [8] were 17.7 µM and 0.0666 µM, respectively. Further, the TGI in assay [1] is more than 100 µM; in assay [2], 52.3 µM; in assay [3] it was 51.6 µM; in assay [4], 47.7 µM; in assay [5], more than 100 µM; in assay [6], more than 100 µM. Besides, the TGI in assay [7] worked out at 50.3 µM; in assay [8], 11.7 µM.
For the compound `O=c1oc2c(Br)c(O)c(Br)cc2c2ccccc12`, the TGI in assay [1] was more than 100 µM; in assay [2], 69 µM; in assay [3], 78.1 µM; in assay [4] it was 75.4 µM; in assay [5] it was 50.5 µM; in assay [7] it was more than 100 µM. The compound also showed a TGI in assay [8] of more than 100 µM.
`COc1ccc(Nc2nc(NCc3ccccc3)c3ccccc3n2)cc1`: the GI50 in assay [1] is 10.1 µM; in assay [2], 8.85 µM; in assay [3], 4.14 µM; in assay [4] it was 1.85 µM; in assay [5] it was 10.1 µM; in assay [6] it was 3.81 µM. For the same compound, the GI50 was 8.45 µM in assay [7] and 2.3 µM in assay [8]. Moreover, the TGI turned out to be 28 µM in assay [1]; 25.1 µM in assay [2]; 23.1 µM in assay [3]; 4.85 µM in assay [4]; 23.3 µM in assay [5]; 13.8 µM in assay [6]. Also, the TGI in assay [7] stood at 22 µM; in assay [8], 5.73 µM.
Turning to `O=C(O)c1ccc([N+](=O)[O-])c(P(=O)(O)O)c1`, the TGI in assay [1], in assay [3], in assay [4], in assay [5], in assay [6] and in assay [7] was more than 100 µM throughout. This compound showed a TGI in assay [8] of more than 100 µM.
Take `NC(=O)Cc1ccccc1Oc1nccc(-c2c(-c3ccc(F)cc3)ncn2C2CCNCC2)n1`: the GI50 in assay [1], in assay [2], in assay [3], in assay [4], in assay [5] and in assay [6] was more than 25 µM each time. Further, the GI50 in assay [7] and in assay [8] was more than 25 µM throughout. The TGI in assay [1], in assay [2], in assay [3], in assay [4], in assay [5] and in assay [6] was more than 25 µM in each case. The TGI in assay [7] and in assay [8] was more than 25 µM throughout.
Take `COC(=O)C1=C(C(=O)Nc2cccnc2)C2OC1(C(Cc1ccccc1)Oc1ccccc1)C1OC21` (centres undefined): the GI50 in assay [1] was 4.1 µM; in assay [2], 13 µM; in assay [3] it was 18.8 µM; in assay [4] it was 2.14 µM; in assay [5], 3.23 µM; in assay [6], 14.6 µM. In addition, the GI50 in assay [7] was 1.51 µM; in assay [8], 2.62 µM. The TGI worked out at 16.8 µM in assay [1]; 27.9 µM in assay [2]; 56.5 µM in assay [3]; 6 µM in assay [4]; 13.1 µM in assay [5]; 33.3 µM in assay [6]. Besides, the figures for the TGI in assay [7] and in assay [8] were 2.85 µM and 7.45 µM, respectively.
Regarding `Cc1cc(N2CCOCC2)nc(N(CCNc2ccnc3cc(Cl)ccc23)Cc2ccco2)n1`, the GI50 in assay [1] was 9.4 µM; in assay [2] it was 11.1 µM; in assay [3], 4.5 µM; in assay [5], 3.25 µM; in assay [6], 4.81 µM; in assay [7], 2.71 µM. In addition, in assay [8], the GI50 is 2.34 µM. Besides, the TGI was 44.6 µM in assay [1]; 46 µM in assay [2]; 68.8 µM in assay [3]; 10 µM in assay [5]; 53.5 µM in assay [6]; 9.62 µM in assay [7]. The compound also returned a TGI in assay [8] of 6.43 µM.
With `COC(=O)C1=C2C3=C(C(=O)c4ccccc4C3=O)N(Cc3ccccc3)C2(OC(C)=O)C=CC1=O` (centres undefined), the GI50 in assay [1] is 18.4 µM; in assay [2], 2.86 µM; in assay [3] it was 8.56 µM; in assay [4], 1.09 µM; in assay [5], 10.6 µM; in assay [8], 15.2 µM. Moreover, the TGI is more than 100 µM in assay [1]; 23.6 µM in assay [2]; more than 100 µM in assay [3]; 8.83 µM in assay [4]; 32.7 µM in assay [5]; 33.8 µM in assay [7]. Also, in assay [8], the TGI amounted to 34 µM.
`S=c1cn[nH]c2ccc(Br)cc12`: the TGI in assay [1], in assay [2], in assay [3], in assay [4], in assay [5] and in assay [6] was more than 100 µM in each case. For the same compound, the TGI in assay [7] and in assay [8] was more than 100 µM throughout.
Consider `COc1cc(C2=Nc3c/c(=C\c4c(O)[nH]c5ccc(Cl)cc45)ccc3=N2)cc(OC)c1OC`, for which the GI50 in assay [1] was 12 µM; in assay [2], 1.93 µM; in assay [3] it was 5.96 µM; in assay [4], 2.04 µM; in assay [5], 1.94 µM; in assay [6], 3.09 µM. The GI50 was 5.76 µM in assay [7] and 1.71 µM in assay [8]. For the same compound, the TGI came to 38.8 µM in assay [1]; 3.78 µM in assay [2]; 54.7 µM in assay [3]; 5.77 µM in assay [4]; 7.97 µM in assay [5]; 12.2 µM in assay [6]. Also, the TGI stood at 17.4 µM in assay [7] and 3.83 µM in assay [8].
Regarding `COC(=O)c1c2c(c[n+]([O-])c1C)C(=O)C(NCc1ccccc1)=CC2=O`, the GI50 was 1.2 µM in assay [1]; 0.998 µM in assay [2]; 0.302 µM in assay [3]; 0.996 µM in assay [4]; 0.334 µM in assay [5]; 0.608 µM in assay [6]. The GI50 in assay [7] was 3.17 µM; in assay [8], 0.297 µM. Moreover, the TGI came to 2.57 µM in assay [1]; 3.94 µM in assay [2]; 1.37 µM in assay [3]; 3.79 µM in assay [4]; 1.06 µM in assay [5]; 3.03 µM in assay [6]. Besides, the TGI in assay [7] was found to be 7.07 µM; in assay [8] it was 1.12 µM.
Regarding `CCOc1ccc(/C=N/Nc2cc(C)nc3ccc(Cl)cc23)cc1`, the GI50 in assay [1] was 1.97 µM; in assay [2], 2.05 µM; in assay [3] it was 1.9 µM; in assay [4], 1.94 µM; in assay [5] it was 1.79 µM; in assay [6], 1.89 µM. Besides, the GI50 was 1.91 µM in assay [7] and 1.53 µM in assay [8]. The TGI in assay [1] amounted to 3.5 µM; in assay [2], 3.9 µM; in assay [3] it was 3.86 µM; in assay [4] it was 4.32 µM; in assay [5], 3.32 µM; in assay [6] it was 3.65 µM. The TGI in assay [7] is 3.37 µM; in assay [8], 2.91 µM.
In the case of `O=C(Nc1cccc(-n2cc(-c3ccncc3)c(-c3cc(O)cc(Cl)c3)n2)c1)Nc1ccc(Cl)c(Cl)c1`, the GI50 in assay [1] is 2.14 µM; in assay [2] it was 3.22 µM; in assay [3], 3.21 µM; in assay [4], 1.44 µM; in assay [5], 1.69 µM; in assay [6] it was 1.5 µM. In addition, the GI50 in assay [8] was 1.44 µM. Further, the TGI was 6.16 µM in assay [1]; 32.8 µM in assay [2]; more than 100 µM in assay [3]; 4.3 µM in assay [4]; 3.76 µM in assay [5]; 3.69 µM in assay [6]. In assay [8], this compound displayed a TGI of 3.28 µM.
Consider `O=Cc1ncc(-c2ccc(C(F)(F)F)cc2)c(NC2CCCCCC2)n1`, for which the GI50 in assay [1], in assay [2], in assay [3], in assay [4], in assay [5] and in assay [6] was more than 10 µM in each case. Further, the GI50 in assay [7] and in assay [8] was more than 10 µM throughout. Further, the TGI in assay [1], in assay [2], in assay [3], in assay [4], in assay [5] and in assay [6] was more than 10 µM each time. Besides, the TGI in assay [7] and in assay [8] was more than 10 µM each time.
On to `CC(/C=C/C=C/C=C/C=C/C=C/C(O)=C1/C(=O)C(CCC(=O)O)N(C)C1=O)=C\C(C)C(OC1CC(O)C(O)C(C)O1)C(C)C` (centres undefined), for which the TGI is 7.83 µM in assay [1]; 14 µM in assay [2]; 50.2 µM in assay [3]; 9.25 µM in assay [4]; 3.73 µM in assay [6]; 7.92 µM in assay [7]. The TGI in assay [8] amounted to 15.2 µM.
Regarding `O=C(Nc1cccnc1)c1cccs1`, the GI50 was 45.4 µM in assay [1]; 4.54 µM in assay [2]; 43.8 µM in assay [3]; 28.1 µM in assay [5]; 0.941 µM in assay [6]; more than 100 µM in assay [7]. In addition, the GI50 in assay [8] is 0.506 µM. Further, the TGI in assay [1], in assay [2], in assay [3], in assay [5], in assay [6] and in assay [7] was more than 100 µM each time. The compound also came in with a TGI in assay [8] of more than 100 µM.
Take `Clc1cccc(Cn2cc(Cc3cn(Cc4cccc(Cl)c4)c4ccccc34)c3ccccc32)c1`: the GI50 is 47.1 µM in assay [1]; more than 100 µM in assay [2]; more than 100 µM in assay [4]; more than 100 µM in assay [5]; more than 100 µM in assay [6]; 92.6 µM in assay [7]. Moreover, the GI50 in assay [8] was more than 100 µM. Moreover, the TGI in assay [1], in assay [2], in assay [4], in assay [5], in assay [6] and in assay [7] was more than 100 µM in each case. The TGI in assay [8] was more than 100 µM.
Turning to `C=CC[Se]C(=O)c1ccccc1OC(C)=O`, the GI50 in assay [2] was 2.49 µM; in assay [3], 1.6 µM; in assay [4] it was 2.22 µM; in assay [5], 1.79 µM; in assay [6], 0.947 µM; in assay [8], 1.58 µM. The TGI in assay [2] stood at 6.5 µM; in assay [3], 4.4 µM; in assay [4], 5.71 µM; in assay [5] it was 3.35 µM; in assay [6], 2.52 µM; in assay [8], 3.06 µM.
For the compound `Nc1ccn(C2OC(CO[P+](=O)OC3C(CO[P+](=O)OC4C(CO[P+](=O)OC5C(CO[P+](=O)OC6C(CO[P+](=O)OC7C(CO[P+](=O)OC8C(CO[P+](=O)OC9C(CO[P+](=O)OC%10C(CO[P+](=O)OC%11C(CO)OC(n%12ccc(N)nc%12=O)C%11(F)F)OC(n%11ccc(N)nc%11=O)C%10(F)F)OC(n%10ccc(N)nc%10=O)C9(F)F)OC(n9ccc(N)nc9=O)C8(F)F)OC(n8ccc(N)nc8=O)C7(F)F)OC(n7ccc(N)nc7=O)C6(F)F)OC(n6ccc(N)nc6=O)C5(F)F)OC(n5ccc(N)nc5=O)C4(F)F)OC(n4ccc(N)nc4=O)C3(F)F)C(O)C2(F)F)c(=O)n1` (centres undefined), the GI50 was 9.59 µM in assay [1], 2.03 µM in assay [6], more than 100 µM in assay [7] and 0.0397 µM in assay [8]. Besides, the TGI in assay [1] was more than 100 µM; in assay [3], more than 100 µM; in assay [6], more than 100 µM; in assay [7] it was more than 100 µM; in assay [8], 0.27 µM.
On to `O=[N+]([O-])c1ccc(Oc2cccnc2)c([N+](=O)[O-])c1`, for which the GI50 in assay [1] is 3.26 µM; in assay [2] it was 4.2 µM; in assay [4], 4.07 µM; in assay [5], 3.75 µM; in assay [6], 2.69 µM; in assay [8], 2.74 µM. Also, the TGI in assay [1] was found to be 16.9 µM; in assay [2], 36.4 µM; in assay [4], 62.6 µM; in assay [5], 17.3 µM; in assay [6], 6.68 µM; in assay [8] it was 8.61 µM.

The record behind these values is PubChem BioAssay (NCI).
